Experimental data reported in patent US11382907B2, “Methods and compositions for treating aging-associated impairments using CCR3-inhibitors” (Alkahest, Inc., priority 2017, dated 2022).
“Also recorded” adds a separate entry of the source.

Tests used:
IL-1beta mRNA = assay: qPCR of IL-1beta mRNA in cortical brain tissue of mice given daily LPS; format: in vivo, C57Bl/6 mice; details: 3-month-old mice, daily LPS IP 7 weeks, 30 mg/kg PO BID 4 weeks
Text: Snap-frozen hemibrains were dissected out into cortex, hippocampus, striatum, and thalamus. The cortex was split into three homogeneous parts and one part was used for RNA isolation. RNA was isolated using the Prolink RNA Mini Kit (Thermo Fisher Scientific #12183025). cDNA was made using Taqman RT Kit (Thermo Fisher Sci #N8080234). qPCR was run on a Quant Studio 6 using custom made Taqman Multiplex Primers for IL-1beta and GAPDH. All samples were run together on a single plate and analyzed for ddCT relative to their endogenous control first and then relative to the control group.
Three-month-old C57 mice were given daily doses of lipopolysaccharide (LPS) 0.5 mg/kg IP to induce inflammation and treated with Compound 1 for up to 4 weeks. […]

[1] = tested on: two-month-old C57Bl/6 mice treated with rmCCL11; assay: Barnes maze test in young mice given recombinant mouse CCL11; format: in vivo; details: 2-month-old mice; rmCCL11 i.p.; Compound 1 30 mg/kg p.o. b.i.d.
Text: A modified Barnes maze was used to assess spatial working/episodic like learning and memory. The Barnes maze apparatus consists of a 122 cm diameter circular platform with 40 escape holes, each with a diameter of 5 cm placed along three rings of varying distances from the center of the platform. An escape box is attached to one of the holes and all holes are left uncovered. Bright lights and a fan are trained on the maze to provide adverse stimuli to encourage escape. Visual cues are placed on all four sides of the maze. Mice are given a series of 4 or 5 trials with inter-trial intervals of approximately 10 min, and the maximum duration of each trial is 90 or 120 sec. For each trial, mice are placed in the center of the maze. After 10 seconds, mice are allowed to explore, and the trial is ended if the mouse has found and entered an escape box before the end of the trial. Mice that cannot find the escape box are led to it and allowed to enter and given 30 sec to remain before being returned to its home cage. Training is done for 4 days. Data that is recorded and analyzed include velocity, escape latency, and distance moved.
Two-month-old C57Bl/6 mice were dosed with either vehicle control or Compound 1 by oral gavage twice daily for 18 days. During the last week of treatment, mice were subjected to behavior testing prior to perfusion on the last day of treatment. […]

[2] = Compound plasma levels in mice under Alzet pump infusion; format: in vivo, C57BL/6 mice; details: C57BL/6, mouse, other: Alzet pump infusion (perfused), 25 µg/hr, mean±s.e.m., read-out: level of the compound in plasma
Experimental: Compound levels were measured by MS/MS by Quintara (Hayward, Calif.).
FIG. 6 depicts the levels of the compound of the invention that were detected in mouse CSF for both the young and old groups (both below 10 nM).

[3] = tested on: CD68+ activated microglia; assay: IHC of CD68+ activated microglia in hippocampus of aged mice; format: in vivo, C57Bl/6 mice; details: 23-month-old mice, 30 mg/kg SQ BID 21 days
Text: Mice were taken down on the day following the end of behavior testing. Anesthesia was induced by 2,2,2-tribromoethanol and mice were subsequently perfused with 0.9% saline trans-cardially. The brains were dissected and cut sagitally in two even halves. One half was snap frozen for later use in dry ice, and the other was fixed in 4% paraformaldehyde in PBS for use in immunohistochemistry. After two days of fixation, the hemibrains were transferred to a 30% sucrose in PBS solution and changed after two days. Hemibrains were sectioned at 30 um on a microtome at −22° C. Brain sections were stored in cryoprotectant media at −20° C. until needed for staining. Blocking was done on free floating sections in the appropriate serum at 10% serum in PBST 0.5%. Primary antibodies were incubated overnight at 4 C. For light microscopy, the following antibodies were used in the given concentrations: DCX, 1:200, Santa Cruz BioTech, CD68, 1:1000. AbD Serotec. Secondary biotinylated antibodies were applied the next day at a concentration of 1:300. Staining visualization was achieved by reaction with the ABC kit (Vector) and diaminobenzidine (Sigma). Dehydration of the mounted slides was achieved using ethanol and xylene dips. Images were acquired on a Leica light microscope at 5× magnification.
23-month-old C57Bl/6 mice were dosed with either vehicle control or Compound 1 subcutaneously twice daily for 21 days. […]

concentration at 4 weeks ([2]; old (18-month) mice perfused 4 weeks at 0.5 μL/hr of 50 mg/mL solution): 355 ± 43 nM
concentration at 2 weeks ([2]; young (2-month-old) mice perfused 2 weeks at 0.5 μL/hr of 50 mg/mL solution): 352 ± 31 nM
Structure (SMILES): Cc1cc(C(=O)N(C)C)cc(NC(=O)[C@H]2CCC(=O)N2C2CCN(Cc3ccc(Cl)c(C)c3)CC2)n1 [Compound 1]
IL-1beta mRNA level in brain (IL-1beta mRNA): significant decrease in IL-1beta expression
memory in the Barnes maze [1]: significantly improved memory performance
CD68+ activated microglia in the hippocampus [3]: strong trend towards decreased microgliosis; also recorded: trend lower
